Laboratory results taken from patent US8415486B2, “IAP inhibitors” (TetraLogic Pharmaceuticals Corp., priority 2009, dated 2013).
pKd: −log10 of the molar value.

Experiments:
XIAP BIR-3 = molecular target: T1, XIAP BIR-3 (Homo sapiens, UniProt P98170); assay: Fluorescence polarization binding to XIAP BIR-3 with labeled peptide AbuRPF-K(5-Fam)-NH2; settings: 40 nM BIR3, 5 nM labeled peptide, reported as ranges
T1 construct: 40 nM of the respective IAP BIR3
Summary of the method: (§1)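 Competitive FP: compounds titrated against 5 nM AbuRPF-K(5-Fam)-NH2 tracer and 40 nM BIR3 protein, 15 min at RT in 0.1 M potassium phosphate pH 7.5 with bovine γ-globulin. Polarization read at 485/520 nm; KD reported in ranges A <0.1, B 0.1–1, C >1–10, D >10 μM.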

[1] = test system: ovarian cancer cell line, SK-OV-3; assay: SK-OV-3 cell growth inhibition (MTT, 72 hrs); assay type: cell-based; settings: Homo sapiens, concentration giving 50% cell survival, reported as ranges
Summary of the method: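 After overnight seeding in McCoy's medium with 10% FBS, SK-OV-3 cells were exposed to compound at 0.003-10 μM for 72 hrs at 37° C. MTT was then added for 3 h, with DMSO solubilization and OD read at 535 nm. CC50 is the concentration giving 50% survival relative to untreated control, reported as ranges.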

cIAP-1 BIR-3 = molecular target: T2, cIAP-1 BIR-3 (Homo sapiens, UniProt Q13490); assay: Fluorescence polarization binding to cIAP-1 BIR-3 with labeled peptide AbuRPF-K(5-Fam)-NH2; settings: 40 nM BIR3, 5 nM labeled peptide, reported as ranges, read-out: KD (c-IAP-1 BIR3)
T2 construct: 40 nM of the respective IAP BIR3
Summary of the method: as §1

T1 sequence (P98170 241-356 limits assumed): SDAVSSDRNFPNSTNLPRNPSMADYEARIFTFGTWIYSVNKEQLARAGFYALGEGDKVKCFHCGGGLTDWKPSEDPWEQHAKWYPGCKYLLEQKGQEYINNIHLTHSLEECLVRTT
T2 sequence (Q13490 253-363 limits assumed): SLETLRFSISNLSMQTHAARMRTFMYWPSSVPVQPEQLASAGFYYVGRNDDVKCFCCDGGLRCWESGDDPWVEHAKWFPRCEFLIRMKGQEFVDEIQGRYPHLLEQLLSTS

SMILES	pKd (XIAP BIR-3)	pKd (cIAP-1 BIR-3)	CC50 [1] [nM]
CN[C@@H](C)C(=O)N[C@H](C(=O)N1CC[C@@H]2[C@H]1[C@@H](OC(=O)NC1CCCC1)CN2C(=O)NC(C)C)C(C)(C)C [Example 56, Cyclopentyl-carbamic acid 4-[3,3-dimethyl-2-(2-methylamino-propionylamino)-butyryl]-1-isopropylcarbamoyl-octahydro-pyrrolo[3,2-b]pyrrol-3-yl ester]	6.00 to 7.00	> 7.00	100 to 1000
CN[C@@H](C)C(=O)N[C@H](C(=O)N1CC[C@@H]2[C@H]1[C@@H](OC(=O)NC1CCCCC1)CN2C(=O)NC(C)C)C(C)(C)C [Example 57, Cyclohexyl-carbamic acid 4-[3,3-dimethyl-2-(2-methylamino-propionylamino)-butyryl]-1-isopropylcarbamoyl-octahydro-pyrrolo[3,2-b]pyrrol-3-yl ester]	6.00 to 7.00	> 7.00	< 100
CN[C@@H](C)C(=O)N[C@H](C(=O)N1CC[C@@H]2[C@H]1[C@@H](OC(=O)N1CCCC1)CN2C(=O)NC(C)C)C(C)(C)C [Example 58, Pyrrolidine-1-carboxylic acid 4-[3,3-dimethyl-2-(2-methylamino-propionylamino)-butyryl]-1-isopropylcarbamoyl-octahydro-pyrrolo[3,2-b]pyrrol-3-yl ester]	5.00 to 6.00	6.00 to 7.00	1000 to 10000
CN[C@@H](C)C(=O)N[C@H](C(=O)N1CC[C@@H]2[C@H]1[C@@H](OC(=O)N1CCCCC1)CN2C(=O)NC(C)C)C(C)(C)C [Example 59, Piperidine-1-carboxylic acid 4-[3,3-dimethyl-2-(2-methylamino-propionylamino)-butyryl]-1-isopropylcarbamoyl-octahydro-pyrrolo[3,2-b]pyrrol-3-yl ester]	5.00 to 6.00	> 7.00	1000 to 10000
CN[C@@H](C)C(=O)N[C@H](C(=O)N1CC[C@@H]2[C@H]1[C@@H](OC(=O)N1CCOCC1)CN2C(=O)NC(C)C)C(C)(C)C [Example 60, Morpholine-4-carboxylic acid 4-[3,3-dimethyl-2-(2-methylamino-propionylamino)-butyryl]-1-isopropylcarbamoyl-octahydro-pyrrolo[3,2-b]pyrrol-3-yl ester]	5.00 to 6.00	> 7.00	1000 to 10000
CN[C@@H](C)C(=O)N[C@H](C(=O)N1CC[C@@H]2[C@H]1[C@@H](O)CN2C(=O)NC(C)C)C(C)(C)C [Example 61, 4-[3,3-Dimethyl-2-(2-methylamino-propionylamino)-butyryl]-3-hydroxy-hexahydro-pyrrolo[3,2-b]pyrrole-1-carboxylic acid isopropylamide]	< 5.00	6.00 to 7.00	1000 to 10000
CNC(=O)N1C[C@H](COc2ccc(F)c(F)c2)[C@@H]2[C@H]1CCN2C(=O)[C@@H](NC(=O)[C@H](C)NC)C(C)(C)C [Example 62, 3-(3,4-Difluoro-phenoxymethyl)-4-[3,3-dimethyl-2-(2-methylamino-propionylamino)-butyryl]-hexahydro-pyrrolo[3,2-b]pyrrole-1-carboxylic acid methylamide]	> 7.00	> 7.00	< 100

Second part, led by results:

pKd (XIAP BIR-3)	pKd (cIAP-1 BIR-3)	SMILES	CC50 [1] [nM]
> 7.00	> 7.00	CN[C@@H](C)C(=O)N[C@H](C(=O)N1CC[C@@H]2[C@H]1[C@@H](COc1ccc(F)c(F)c1)CN2S(C)(=O)=O)C(C)(C)C [Example 63, N-{1-[6-(3,4-Difluoro-phenoxymethyl)-4-methanesulfonyl-hexahydro-pyrrolo[3,2-b]pyrrole-1-carbonyl}-2,2-dimethyl-propyl]-2-methylamino propionamide]	< 100
> 7.00	> 7.00	CN[C@@H](C)C(=O)N[C@H](C(=O)N1CC[C@H]2NC[C@H](COc3ccc(F)c(F)c3)[C@H]21)C(C)(C)C [Example 64, N-{1-[6-(3,4-Difluoro-phenoxymethyl)-hexahydro-pyrrolo[3,2-b]pyrrole-1-carbonyl]-2,2-dimethyl-propyl}-2-methylamino propionamide]	< 100
> 7.00	> 7.00	CN[C@@H](C)C(=O)N[C@H](C(=O)N1CC[C@@H]2[C@H]1[C@@H](COc1ccc(F)c(F)c1)CN2C(C)=O)C(C)(C)C [Example 65, N-{1-[4-Acetyl-6-(3,4-difluoro-phenoxymethyl)-hexahydro-pyrrolo[3,2-b]pyrrole-1-carbonyl]-2,2-dimethyl-propyl}-2-methylamino propionamide]	< 100
> 7.00	> 7.00	CN[C@@H](C)C(=O)N[C@H](C(=O)N1CC[C@@H]2[C@H]1[C@@H](COc1ccc(F)c(F)c1)CN2C(=O)C(C)=O)C(C)(C)C [Example 66, N-{1-[6-(3,4-Difluoro-phenoxymethyl)-4-(2-oxo-propionyl)-hexahydro-pyrrolo[3,2-b]pyrrole-1-carbonyl]-2,2-dimethyl-propyl}-2-methylamino propionamide]	< 100
> 7.00	> 7.00	CN[C@@H](C)C(=O)N[C@H](C(=O)N1CC[C@@H]2[C@H]1[C@@H](COc1ccc(F)c(F)c1)CN2C(=O)NC(C)C)C(C)(C)C [Example 67, 3-(3,4-Difluoro-phenoxymethyl)-4-[3.3-dimethyl-2-(2-methylaminopropionylamino)-butyryl]-hexahydro-pyrrolo[3,2-b]pyrrole-1-carboxylic acid isopropylamide]	< 100
> 7.00	> 7.00	CN[C@@H](C)C(=O)N[C@H](C(=O)N1CC[C@@H]2[C@H]1[C@@H](COc1ccc(F)c(F)c1)CN2C(=O)N(C)C)C(C)(C)C [Example 68, 3-(3,4-Difluoro-phenoxymethyl)-4-[3.3-dimethyl-2-(2-methylaminopropionylamino)-butyryl]-hexahydro-pyrrolo[3,2-b]pyrrole-1-carboxylic acid dimethylamide]	< 100
6.00 to 7.00	> 7.00	CN[C@@H](C)C(=O)N[C@H](C(=O)N1CC[C@@H]2[C@H]1[C@@H](COc1ccc(F)c(F)c1)CN2C(=O)C1CC1)C(C)(C)C [Example 69, N-{1-[4-Cyclopropanecarbonyl-6-(3,4-difluoro-phenoxymethyl)-hexahydro-pyrrolo[3,2-b]pyrrole-1-carbonyl]-2,2-dimethyl-propyl}-2-methylamino propionamide]	< 100
> 7.00	> 7.00	CN[C@@H](C)C(=O)N[C@H](C(=O)N1CC[C@@H]2[C@H]1[C@@H](COc1ccc(F)c(F)c1)CN2C(=O)OC)C(C)(C)C [Example 70, 3-(3,4-Difluoro-phenoxymethyl)-4-[3.3-dimethyl-2-(2-methylaminopropionylamino)-butyryl]-hexahydro-pyrrolo[3,2-b]pyrrole-1-carboxylic acid methyl ester]	< 100
> 7.00	> 7.00	CN[C@@H](C)C(=O)N[C@H](C(=O)N1CC[C@@H]2[C@H]1[C@@H](COc1ccc(F)c(F)c1)CN2C(=O)CC(C)C)C(C)(C)C [Example 71, N-{1-[6-(3,4-Difluoro-phenoxymethyl)-4-(3-methyl-butyryl)-hexahydro-pyrrolo[3,2-b]pyrrole-1-carbonyl]-2,2-dimethyl-propyl}-2-methylamino propionamide]	< 100
6.00 to 7.00	> 7.00	CN[C@@H](C)C(=O)N[C@H](C(=O)N1CC[C@@H]2[C@H]1[C@@H](COc1ccc(F)c(F)c1)CN2c1ncccn1)C(C)(C)C [Example 72, N-{1-[6-(3,4-Difluoro-phenoxymethyl)-4-pyrimidin-2-yl-hexahydro-pyrrolo[3,2-b]pyrrole-1-carbonyl]-2,2-dimethylpropyl}-2-methylamino-propionamide]	< 100
